Reference: paper PMC9150124, “Design of a Potent, Selective, and Brain-Penetrant Inhibitor of Wnt-Deactivating Enzyme Notum by Optimization of a Crystallographic Fragment Hit” (Journal of Medicinal Chemistry, 2022)

Assays:
Assay in all cases: SelectScreen kinase profiling, SSBK ZLyte SP Technology
Assay type in all cases: biochemical
[1] = target: kinase named in conditions (Homo sapiens, UniProt P00519, G250E); settings: ABL1 G250E, 10 μM
Description: (§1) Kinase selectivity screening was performed by Thermo Fisher Scientific (Paisley, U.K.) in their SelectScreen Biochemical Kinase Profiling Service. Assay information and data are presented in the Supporting Information.
(§2) Kinase selectivity screening was performed by ThermoFisher Scientific (Paisley, U.K.) in their SelectScreenTM
(§3) Biochemical Kinase Profiling service .

[2] = target: kinase named in conditions (Homo sapiens, UniProt Q9P1W9); settings: PIM2, 10 μM
Description: as §1, §2, §3

[3] = target: kinase named in conditions (Homo sapiens, UniProt P10721, V559D/V654A); settings: KIT V559D V654A, 10 μM
Chain of kinase named in conditions (Homo sapiens, UniProt P10721, V559D/V654A) (P10721 26-976 V559D/V654A): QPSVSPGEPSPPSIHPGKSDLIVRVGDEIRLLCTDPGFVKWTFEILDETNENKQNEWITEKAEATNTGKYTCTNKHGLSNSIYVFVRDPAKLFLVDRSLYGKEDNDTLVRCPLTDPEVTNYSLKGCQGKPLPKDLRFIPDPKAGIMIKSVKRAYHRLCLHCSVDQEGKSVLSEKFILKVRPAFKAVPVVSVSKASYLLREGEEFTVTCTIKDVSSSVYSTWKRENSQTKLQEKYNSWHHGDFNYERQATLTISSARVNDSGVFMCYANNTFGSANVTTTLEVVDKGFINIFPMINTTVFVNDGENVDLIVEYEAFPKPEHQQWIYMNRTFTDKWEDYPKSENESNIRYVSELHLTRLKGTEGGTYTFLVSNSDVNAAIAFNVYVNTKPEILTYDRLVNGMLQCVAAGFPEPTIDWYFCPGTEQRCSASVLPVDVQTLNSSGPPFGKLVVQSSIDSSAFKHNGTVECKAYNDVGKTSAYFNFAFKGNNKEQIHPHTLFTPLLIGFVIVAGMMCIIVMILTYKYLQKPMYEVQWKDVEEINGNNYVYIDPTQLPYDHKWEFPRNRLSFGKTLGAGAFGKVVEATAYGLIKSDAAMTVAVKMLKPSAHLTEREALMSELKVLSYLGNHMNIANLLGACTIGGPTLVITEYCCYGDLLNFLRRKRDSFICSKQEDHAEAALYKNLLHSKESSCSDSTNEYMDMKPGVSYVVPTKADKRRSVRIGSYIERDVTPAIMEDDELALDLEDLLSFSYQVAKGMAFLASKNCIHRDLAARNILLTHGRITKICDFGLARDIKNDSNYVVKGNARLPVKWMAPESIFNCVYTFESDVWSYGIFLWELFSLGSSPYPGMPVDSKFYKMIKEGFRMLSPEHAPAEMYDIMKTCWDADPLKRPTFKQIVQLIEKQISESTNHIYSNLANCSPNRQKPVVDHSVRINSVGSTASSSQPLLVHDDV
Description: as §1, §2, §3

[4] = target: kinase named in conditions (Homo sapiens, UniProt P07332); settings: FES (FPS), 10 μM
Description: as §1, §2, §3

[5] = target: kinase named in conditions (Homo sapiens, UniProt P00519, F317L); settings: ABL1 F317L, 10 μM
Description: as §1, §2, §3

[6] = target: kinase named in conditions (Homo sapiens, UniProt P54762); settings: EPHB1, 10 μM
Description: as §1, §2, §3

[7] = target: kinase named in conditions (Homo sapiens, UniProt P31751); settings: AKT2 (PKB beta), 10 μM
Description: as §1, §2, §3

[8] = target: kinase named in conditions (Homo sapiens, UniProt P00533, L858R); settings: EGFR (ErbB1) L858R, 10 μM
Description: as §1, §2, §3

[9] = target: kinase named in conditions (Homo sapiens, UniProt Q8TD19); settings: NEK9, 10 μM
Description: as §1, §2, §3

[10] = target: kinase named in conditions (Homo sapiens, UniProt P34947); settings: GRK5, 10 μM
Description: as §1, §2, §3

[11] = target: kinase named in conditions (Homo sapiens, UniProt Q13976); settings: PRKG1, 10 μM
Description: as §1, §2, §3

[12] = target: kinase named in conditions (Homo sapiens, UniProt P17612); settings: PRKACA (PKA), 10 μM
Description: as §1, §2, §3

[13] = target: kinase named in conditions (Homo sapiens, UniProt P49760); settings: CLK2, 10 μM
Description: as §1, §2, §3

[14] = target: kinase named in conditions (Homo sapiens, UniProt Q13043); settings: STK4 (MST1), 10 μM
Description: as §1, §2, §3

[15] = target: kinase named in conditions (Homo sapiens, UniProt P35968); settings: KDR (VEGFR2), 10 μM
Chain of kinase named in conditions (Homo sapiens, UniProt P35968) (P35968 20-1356): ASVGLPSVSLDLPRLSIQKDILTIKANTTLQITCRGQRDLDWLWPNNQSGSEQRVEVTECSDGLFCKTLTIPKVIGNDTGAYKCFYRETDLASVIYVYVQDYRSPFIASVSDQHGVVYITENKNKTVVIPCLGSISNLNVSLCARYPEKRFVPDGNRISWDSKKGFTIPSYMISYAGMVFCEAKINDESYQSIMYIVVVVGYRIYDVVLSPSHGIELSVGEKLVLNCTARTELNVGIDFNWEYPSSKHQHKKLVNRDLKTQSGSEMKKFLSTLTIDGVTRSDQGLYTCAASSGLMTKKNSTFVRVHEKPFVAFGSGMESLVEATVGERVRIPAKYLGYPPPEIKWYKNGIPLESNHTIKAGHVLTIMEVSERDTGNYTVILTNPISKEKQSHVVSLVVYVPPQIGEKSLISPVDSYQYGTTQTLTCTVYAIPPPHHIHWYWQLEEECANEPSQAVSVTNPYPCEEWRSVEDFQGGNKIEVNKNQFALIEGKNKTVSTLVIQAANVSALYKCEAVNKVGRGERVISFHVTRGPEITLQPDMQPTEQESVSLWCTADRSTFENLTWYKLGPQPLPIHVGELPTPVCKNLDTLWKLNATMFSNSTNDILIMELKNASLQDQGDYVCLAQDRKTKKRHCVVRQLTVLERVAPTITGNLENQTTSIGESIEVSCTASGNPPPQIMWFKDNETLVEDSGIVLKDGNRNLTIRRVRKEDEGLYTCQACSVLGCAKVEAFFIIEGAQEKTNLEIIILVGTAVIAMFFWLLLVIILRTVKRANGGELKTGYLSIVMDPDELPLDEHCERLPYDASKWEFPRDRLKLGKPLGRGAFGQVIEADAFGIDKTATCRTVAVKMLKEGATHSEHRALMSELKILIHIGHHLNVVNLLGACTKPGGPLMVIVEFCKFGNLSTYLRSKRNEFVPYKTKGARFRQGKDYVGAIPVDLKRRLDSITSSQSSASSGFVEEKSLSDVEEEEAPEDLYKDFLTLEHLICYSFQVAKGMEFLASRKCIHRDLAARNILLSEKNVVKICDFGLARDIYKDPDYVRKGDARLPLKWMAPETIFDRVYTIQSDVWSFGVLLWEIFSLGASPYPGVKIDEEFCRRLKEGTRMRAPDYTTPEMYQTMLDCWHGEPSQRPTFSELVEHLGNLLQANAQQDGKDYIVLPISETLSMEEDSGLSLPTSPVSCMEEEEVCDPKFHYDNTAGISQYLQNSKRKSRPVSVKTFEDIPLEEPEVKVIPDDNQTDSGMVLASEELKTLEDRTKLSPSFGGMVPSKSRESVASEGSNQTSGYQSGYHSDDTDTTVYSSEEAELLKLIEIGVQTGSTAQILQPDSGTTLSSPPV
Description: as §1, §2, §3

[16] = target: kinase named in conditions (Homo sapiens, UniProt Q06418); settings: TYRO3 (RSE), 10 μM
Description: as §1, §2, §3

[17] = target: kinase named in conditions (Homo sapiens, UniProt Q02750); settings: MAP2K1 (MEK1), 10 μM
Chain of kinase named in conditions (Homo sapiens, UniProt Q02750) (Q02750 whole entry): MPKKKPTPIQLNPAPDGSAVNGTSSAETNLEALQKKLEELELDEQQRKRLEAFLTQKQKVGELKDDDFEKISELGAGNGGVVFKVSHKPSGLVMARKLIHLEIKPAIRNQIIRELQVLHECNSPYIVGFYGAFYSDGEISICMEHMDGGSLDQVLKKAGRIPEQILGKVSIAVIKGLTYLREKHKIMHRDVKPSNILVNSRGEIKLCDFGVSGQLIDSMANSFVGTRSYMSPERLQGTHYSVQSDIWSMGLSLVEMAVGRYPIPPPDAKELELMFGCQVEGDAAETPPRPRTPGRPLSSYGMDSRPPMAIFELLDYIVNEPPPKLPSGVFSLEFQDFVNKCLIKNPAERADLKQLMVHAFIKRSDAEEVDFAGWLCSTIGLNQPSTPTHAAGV
Description: as §1, §2, §3

[18] = target: kinase named in conditions (Homo sapiens, UniProt P07949, Y791F); settings: RET Y791F, 10 μM
Description: as §1, §2, §3

[19] = target: kinase named in conditions (Homo sapiens, UniProt P00533, C797S/L858R/T790M); settings: EGFR (ErbB1) T790M C797S L858R, 10 μM
Description: as §1, §2, §3

[20] = target: kinase named in conditions (Homo sapiens, UniProt P16591); settings: FER, 10 μM
Chain of kinase named in conditions (Homo sapiens, UniProt P16591) (P16591 whole entry): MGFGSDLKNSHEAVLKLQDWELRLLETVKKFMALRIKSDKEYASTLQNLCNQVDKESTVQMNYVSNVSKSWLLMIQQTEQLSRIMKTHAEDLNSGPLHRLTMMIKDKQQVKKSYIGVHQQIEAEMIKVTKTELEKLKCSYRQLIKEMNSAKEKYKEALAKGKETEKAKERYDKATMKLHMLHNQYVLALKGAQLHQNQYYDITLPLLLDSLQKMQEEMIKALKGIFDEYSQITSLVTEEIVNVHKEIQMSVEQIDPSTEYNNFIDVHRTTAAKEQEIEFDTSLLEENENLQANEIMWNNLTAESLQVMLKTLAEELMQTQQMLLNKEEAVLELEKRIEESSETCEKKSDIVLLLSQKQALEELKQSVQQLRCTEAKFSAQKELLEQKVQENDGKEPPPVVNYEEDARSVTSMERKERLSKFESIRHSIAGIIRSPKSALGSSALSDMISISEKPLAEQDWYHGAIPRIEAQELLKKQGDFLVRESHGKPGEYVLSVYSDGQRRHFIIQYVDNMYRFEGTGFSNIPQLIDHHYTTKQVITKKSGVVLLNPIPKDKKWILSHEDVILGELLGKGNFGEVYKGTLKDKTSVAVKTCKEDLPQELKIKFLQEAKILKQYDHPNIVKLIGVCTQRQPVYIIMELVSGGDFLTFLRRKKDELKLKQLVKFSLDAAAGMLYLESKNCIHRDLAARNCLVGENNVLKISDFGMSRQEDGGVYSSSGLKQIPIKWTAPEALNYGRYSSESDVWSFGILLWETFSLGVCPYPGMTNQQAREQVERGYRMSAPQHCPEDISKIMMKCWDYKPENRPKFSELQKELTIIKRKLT
Description: as §1, §2, §3

[21] = target: kinase named in conditions (Homo sapiens, UniProt P04626); settings: ERBB2 (HER2), 10 μM
Description: as §1, §2, §3

[22] = target: kinase named in conditions (Homo sapiens, UniProt P49674, R178C); settings: CSNK1E (CK1 epsilon) R178C, 10 μM
Description: as §1, §2, §3

[23] = target: kinase named in conditions (Homo sapiens, UniProt Q8NE63); settings: HIPK4, 10 μM
Description: as §1, §2, §3

[24] = target: kinase named in conditions (Homo sapiens, UniProt P10721, T670I); settings: KIT T670I, 10 μM
Chain of kinase named in conditions (Homo sapiens, UniProt P10721, T670I) (P10721 26-976 T670I): as the sequence (P10721 26-976 V559D/V654A) above, with D534V, A629V, T645I counted along it
Description: as §1, §2, §3

[25] = target: kinase named in conditions (Homo sapiens, UniProt P31749); settings: AKT1 (PKB alpha), 10 μM
Description: as §1, §2, §3

[26] = target: kinase named in conditions (Homo sapiens, UniProt O15264); settings: MAPK13 (p38 delta), 10 μM
Description: as §1, §2, §3

[27] = target: kinase named in conditions (Homo sapiens, UniProt P12931); settings: SRC, 10 μM
Chain of kinase named in conditions (Homo sapiens, UniProt P12931) (P12931 whole entry): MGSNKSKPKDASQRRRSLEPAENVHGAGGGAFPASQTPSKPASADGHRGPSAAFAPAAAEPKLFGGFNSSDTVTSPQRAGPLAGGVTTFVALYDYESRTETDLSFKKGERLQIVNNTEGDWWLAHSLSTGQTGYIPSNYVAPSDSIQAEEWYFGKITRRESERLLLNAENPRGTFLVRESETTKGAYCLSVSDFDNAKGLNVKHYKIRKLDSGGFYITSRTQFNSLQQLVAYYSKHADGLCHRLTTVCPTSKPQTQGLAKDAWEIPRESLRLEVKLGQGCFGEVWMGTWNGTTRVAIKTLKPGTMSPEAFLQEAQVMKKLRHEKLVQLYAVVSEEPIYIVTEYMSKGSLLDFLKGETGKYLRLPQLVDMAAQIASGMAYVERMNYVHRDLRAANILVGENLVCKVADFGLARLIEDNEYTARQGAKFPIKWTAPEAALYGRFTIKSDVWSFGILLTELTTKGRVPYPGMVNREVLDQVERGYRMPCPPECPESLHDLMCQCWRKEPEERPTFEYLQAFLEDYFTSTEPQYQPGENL
Description: as §1, §2, §3

[28] = target: kinase named in conditions (Homo sapiens, UniProt Q96RG2); settings: PASK, 10 μM
Description: as §1, §2, §3

[29] = target: kinase named in conditions (Homo sapiens, UniProt Q9NR20); settings: read-out: % Inhibition mean
Description: as §1, §2, §3

[30] = target: kinase named in conditions (Homo sapiens, UniProt P07948); settings: LYN A, 10 μM
Description: as §1, §2, §3

[31] = target: kinase named in conditions (Homo sapiens, UniProt P22607, V555M); settings: FGFR3 V555M, 10 μM
Chain of kinase named in conditions (Homo sapiens, UniProt P22607, V555M) (P22607 23-806 V555M): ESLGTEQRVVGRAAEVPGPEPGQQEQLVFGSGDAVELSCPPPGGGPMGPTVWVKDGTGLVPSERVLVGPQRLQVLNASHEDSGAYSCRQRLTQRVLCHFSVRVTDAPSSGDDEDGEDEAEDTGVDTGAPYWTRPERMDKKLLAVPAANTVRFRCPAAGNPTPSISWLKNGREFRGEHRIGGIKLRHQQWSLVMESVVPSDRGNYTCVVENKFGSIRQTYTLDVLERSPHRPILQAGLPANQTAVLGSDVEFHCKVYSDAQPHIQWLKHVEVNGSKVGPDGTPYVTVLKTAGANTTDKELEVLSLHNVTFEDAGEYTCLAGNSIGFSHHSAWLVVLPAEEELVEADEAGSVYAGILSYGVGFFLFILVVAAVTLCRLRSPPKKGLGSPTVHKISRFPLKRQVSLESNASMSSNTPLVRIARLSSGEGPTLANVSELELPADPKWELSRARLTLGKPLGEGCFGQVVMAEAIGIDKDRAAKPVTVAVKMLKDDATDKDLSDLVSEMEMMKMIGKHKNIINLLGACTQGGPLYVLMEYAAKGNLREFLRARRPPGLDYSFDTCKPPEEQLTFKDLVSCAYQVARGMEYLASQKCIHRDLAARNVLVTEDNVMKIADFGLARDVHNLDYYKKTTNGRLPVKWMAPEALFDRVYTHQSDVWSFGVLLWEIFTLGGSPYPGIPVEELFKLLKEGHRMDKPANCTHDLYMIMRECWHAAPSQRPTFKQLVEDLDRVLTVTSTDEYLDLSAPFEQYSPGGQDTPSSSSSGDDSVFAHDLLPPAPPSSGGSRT
Description: as §1, §2, §3

[32] = target: kinase named in conditions (Homo sapiens, UniProt Q96GD4); settings: AURKB (Aurora B), 10 μM
Description: as §1, §2, §3

[33] = target: kinase named in conditions (Homo sapiens, UniProt P15056, V600E); settings: BRAF V599E, 10 μM
Description: as §1, §2, §3

[34] = target: kinase named in conditions (Homo sapiens, UniProt P08581); settings: MET (cMet), 10 μM
Description: as §1, §2, §3

## FC(F)(F)c1c(Cl)ccc(-n2ccnn2)c1Cl [8l, 1-(2,4-Dichloro-3-(trifluoromethyl)phenyl)-1H-1,2,3-triazole]
[1]
  inhibition at 10 µM: 8%
[2]
  inhibition at 10 µM: 5%
[3]
  inhibition at 10 µM: 1%
[4]
  inhibition at 10 µM: 6%
[5]
  inhibition at 10 µM: 16%
[6]
  inhibition at 10 µM: 3%
[7]
  inhibition at 10 µM: 7%
[8]
  inhibition at 10 µM: 2%
[9]
  inhibition at 10 µM: -3%
[10]
  inhibition at 10 µM: -2%
[11]
  inhibition at 10 µM: 15%
[12]
  inhibition at 10 µM: 0%
[13]
  inhibition at 10 µM: 18%
[14]
  inhibition at 10 µM: 1%
[15]
  inhibition at 10 µM: 14%
[16]
  inhibition at 10 µM: 5%
[17]
  inhibition at 10 µM: -5%
[18]
  inhibition at 10 µM: 5%
[19]
  inhibition at 10 µM: -17%
[20]
  inhibition at 10 µM: 2%
[21]
  inhibition at 10 µM: 0%
[22]
  inhibition at 10 µM: -3%
[23]
  inhibition at 10 µM: -2%
[24]
  inhibition at 10 µM: 10%
[25]
  inhibition at 10 µM: 7%
[26]
  inhibition at 10 µM: -2%
[27]
  inhibition at 10 µM: 6%
[28]
  inhibition at 10 µM: -1%
[29]
  inhibition at 10 µM: 1%
[30]
  inhibition at 10 µM: -1%
[31]
  inhibition at 10 µM: -14%
[32]
  inhibition at 10 µM: 7%
[33]
  inhibition at 10 µM: 5%
[34]
  inhibition at 10 µM: 8%
